Assay results taken from patent publication US20130225578A1, “7-CYCLYLQUINAZOLINE DERIVATIVES AND METHODS OF USE THEREOF” (AMBIT BIOSCIENCES CORPORATION, priority 2010, published 2013).
pIC50, pKd: −log10 of the molar value.

How the values were obtained:
JAK3 = biological target: T1, JAK3 (Homo sapiens, UniProt P52333); assay: Competition binding assay, JAK3
T1 construct: made in house; host or cells: T7 phage display or HEK-293 cells (alternatives)
T1 sequence (P52333 1-1124): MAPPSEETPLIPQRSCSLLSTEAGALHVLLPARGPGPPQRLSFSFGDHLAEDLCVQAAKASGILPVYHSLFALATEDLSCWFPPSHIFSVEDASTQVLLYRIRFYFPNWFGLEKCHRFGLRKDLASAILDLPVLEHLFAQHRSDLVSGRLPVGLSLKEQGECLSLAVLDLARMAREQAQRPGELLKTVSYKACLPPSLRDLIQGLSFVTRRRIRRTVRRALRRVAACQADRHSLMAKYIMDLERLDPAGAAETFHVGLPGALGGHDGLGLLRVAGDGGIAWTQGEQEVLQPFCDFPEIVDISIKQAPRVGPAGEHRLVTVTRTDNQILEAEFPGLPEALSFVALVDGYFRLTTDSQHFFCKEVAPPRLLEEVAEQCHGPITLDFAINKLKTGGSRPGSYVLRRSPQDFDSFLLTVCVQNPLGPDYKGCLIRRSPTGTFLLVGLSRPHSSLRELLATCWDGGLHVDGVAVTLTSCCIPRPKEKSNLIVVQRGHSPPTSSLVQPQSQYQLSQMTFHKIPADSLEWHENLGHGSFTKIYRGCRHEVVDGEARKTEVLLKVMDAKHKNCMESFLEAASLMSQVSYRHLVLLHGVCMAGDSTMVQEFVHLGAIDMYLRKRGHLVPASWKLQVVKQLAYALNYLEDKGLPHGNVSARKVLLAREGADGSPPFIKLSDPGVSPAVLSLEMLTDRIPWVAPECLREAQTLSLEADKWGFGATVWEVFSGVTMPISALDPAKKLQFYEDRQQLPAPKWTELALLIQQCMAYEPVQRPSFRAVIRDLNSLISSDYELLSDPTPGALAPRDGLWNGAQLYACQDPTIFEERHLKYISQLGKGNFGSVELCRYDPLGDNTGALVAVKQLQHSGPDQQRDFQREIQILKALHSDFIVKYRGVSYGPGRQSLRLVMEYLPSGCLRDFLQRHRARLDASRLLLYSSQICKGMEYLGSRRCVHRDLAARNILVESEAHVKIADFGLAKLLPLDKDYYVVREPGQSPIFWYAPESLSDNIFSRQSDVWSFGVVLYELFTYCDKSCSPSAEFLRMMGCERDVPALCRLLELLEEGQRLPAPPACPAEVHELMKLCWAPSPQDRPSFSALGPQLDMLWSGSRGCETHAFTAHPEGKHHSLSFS
Experimental: (§1) Competition binding assays used herein were developed, validated and performed as described in Fabian et al., Nature Biotechnology 2005, 23, 329-336. Kinases were produced as fusions to T7 phage (See, Fabian et al. or WO04/015142) or alternatively, the kinases were expressed in HEK-293 cells and subsequently tagged with DNA for PCR detection (See, WO08/005,310). For the binding assays, streptavidin-coated magnetic beads were treated with biotinylated affinity ligands for […] at rt to generate affinity resins. The liganded beads were blocked with excess biotin and washed with blocking buffer (SeaBlock (Pierce), 1% BSA, 0.05% Tween 20, 1 mM DTT) to remove unbound ligand and to reduce non-specific binding. Binding reactions were assembled by combining kinase, liganded affinity beads, and test compounds in 1× binding buffer (20% SeaBlock, 0.17×PBS, 0.05% Tween 20, 6 mM DTT). Test compounds were prepared as 100× stocks in DMSO and rapidly diluted into the aqueous environment. DMSO was added to control assays lacking a test compound. Primary screen interactions were performed in polypropylene 384-well plates in a final volume of 34 μL, while Kd determinations were performed in polystyrene 96-well plates in a final volume of 135 μL. The assay plates were incubated at room temperature with shaking for 1 hour, long enough for binding reactions to reach equilibrium, and the affinity beads were washed extensively with wash buffer (1×PBS, 0.05% Tween 20) to remove unbound protein. The beads were then resuspended in elution buffer (1×PBS, 0.05% Tween 20, 2 μM non-biotinylated affinity ligand) and incubated at room temperature with shaking for 30 min. The kinase concentration in the eluates was measured by quantitative PCR. Each kinase was tested individually against each compound. Kds were determined using eleven serial threefold dilutions. A selectivity score, which is a quantitative measure of selectivity of a compound against a panel of enzymes, may be calculated for a compound by dividing the number of enzymes for which a compound meets a set criteria, (for example, a binding constant of 100 nM or less), by the total number of enzymes tested.

JAK2 = biological target: T2, JAK2 (Homo sapiens, UniProt O60674); assay: Competition binding assay, JAK2
T2 construct: made in house; host or cells: T7 phage display or HEK-293 cells (alternatives)
T2 sequence (O60674 whole entry): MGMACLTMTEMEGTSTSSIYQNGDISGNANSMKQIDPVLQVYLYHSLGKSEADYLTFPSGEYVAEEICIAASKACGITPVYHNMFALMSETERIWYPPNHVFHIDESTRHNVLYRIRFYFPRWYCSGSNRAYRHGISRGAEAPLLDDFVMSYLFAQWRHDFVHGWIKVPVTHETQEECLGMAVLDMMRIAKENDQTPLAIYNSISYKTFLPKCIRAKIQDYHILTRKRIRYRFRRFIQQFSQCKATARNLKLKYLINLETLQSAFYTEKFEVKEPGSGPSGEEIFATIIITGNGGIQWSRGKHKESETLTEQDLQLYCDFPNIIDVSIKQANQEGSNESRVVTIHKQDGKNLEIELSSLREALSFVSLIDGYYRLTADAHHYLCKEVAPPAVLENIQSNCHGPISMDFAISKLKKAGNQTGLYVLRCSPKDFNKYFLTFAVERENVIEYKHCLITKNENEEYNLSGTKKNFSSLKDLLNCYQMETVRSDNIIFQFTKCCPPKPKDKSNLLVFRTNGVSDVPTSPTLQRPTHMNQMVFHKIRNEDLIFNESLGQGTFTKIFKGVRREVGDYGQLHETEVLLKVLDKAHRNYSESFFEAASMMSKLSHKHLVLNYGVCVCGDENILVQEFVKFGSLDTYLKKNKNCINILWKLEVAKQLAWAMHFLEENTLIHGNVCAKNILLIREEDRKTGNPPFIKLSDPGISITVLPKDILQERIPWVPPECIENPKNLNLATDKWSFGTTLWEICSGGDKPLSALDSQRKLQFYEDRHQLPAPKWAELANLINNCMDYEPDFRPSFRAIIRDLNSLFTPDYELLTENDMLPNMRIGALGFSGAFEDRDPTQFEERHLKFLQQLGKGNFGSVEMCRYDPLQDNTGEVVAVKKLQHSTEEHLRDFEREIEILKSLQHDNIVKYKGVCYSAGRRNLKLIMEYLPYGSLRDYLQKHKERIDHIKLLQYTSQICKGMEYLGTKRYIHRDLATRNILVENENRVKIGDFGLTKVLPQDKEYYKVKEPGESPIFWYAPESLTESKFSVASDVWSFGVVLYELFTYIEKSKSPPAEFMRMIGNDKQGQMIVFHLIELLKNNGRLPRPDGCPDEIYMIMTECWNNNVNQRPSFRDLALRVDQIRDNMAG
Experimental: as §1

[1] = test system: GM-CSFR/JAK2/STAT5 pathway; assay: CSTF-1 cell-based reporter assay (beta-lactamase reporter, GM-CSF stimulated); settings: Homo sapiens; csTF-1 cells, GM-CSF 2 ng/mL, 4 hours; read-out: Cell Assay: CS TF-1 reporter assay IC50
Experimental: CSTF-1 cells are derived from the human erythroleukemia cell line that is growth dependent on GM-CSF and has an intact GM-CSFR/JAK2/STAT5 pathway. The cell line contains stably integrated beta-lactamase reporter gene under the control of the […] (irf 1) response element recognized by the activated transcription factor STAT5. csTF-1 cells (Invitrogen K1219) were washed with assay media (97% OPTIMEM/0.5% dialyzed FBS/0.1 mM NEAA/1 mM Na pyr/P/S) and seeded in the same media at 5×10^5 cell/mL in T150 flask. After 16 hour incubation, cells were seeded at 2×10^5 cell/well in 50 jtl volume, into Costar, clear bottom, 96-well assay plates. Serial dilutions of compounds were added to the plates with final DMSO concentration at 0.5% and GM-CSF at 2 ng/mL and the plates were then incubated at 30° C. and 5% CO2 for 4 hours. The plates were brought to room temperature before adding Substrate Mixture according to manufacturer's protocol (Invitrogen, Catalog #K1085). The assay plates containing the substrate mixture were incubated in the dark at room temperature for 2 hours. Blue and green fluorescence was measured with excitation at 409 nm and emission at 460 nm (for blue) and excitation at 409 nm and emission at 530 nm (for green) using Spectra Max Gemini EM.

[2] = test system: distinct kinases tested excluding mutant variants, typically 359 or 386 kinases; assay: Kinase panel competition binding, selectivity score; settings: compound at 10 μM; fraction of kinases with inhibition of 90% or greater
Experimental: as §1

TYK2 = biological target: T3, TYK2 (Homo sapiens, UniProt P29597); assay: Competition binding assay, TYK2
T3 construct: made in house; host or cells: T7 phage display or HEK-293 cells (alternatives)
T3 sequence (P29597 whole entry): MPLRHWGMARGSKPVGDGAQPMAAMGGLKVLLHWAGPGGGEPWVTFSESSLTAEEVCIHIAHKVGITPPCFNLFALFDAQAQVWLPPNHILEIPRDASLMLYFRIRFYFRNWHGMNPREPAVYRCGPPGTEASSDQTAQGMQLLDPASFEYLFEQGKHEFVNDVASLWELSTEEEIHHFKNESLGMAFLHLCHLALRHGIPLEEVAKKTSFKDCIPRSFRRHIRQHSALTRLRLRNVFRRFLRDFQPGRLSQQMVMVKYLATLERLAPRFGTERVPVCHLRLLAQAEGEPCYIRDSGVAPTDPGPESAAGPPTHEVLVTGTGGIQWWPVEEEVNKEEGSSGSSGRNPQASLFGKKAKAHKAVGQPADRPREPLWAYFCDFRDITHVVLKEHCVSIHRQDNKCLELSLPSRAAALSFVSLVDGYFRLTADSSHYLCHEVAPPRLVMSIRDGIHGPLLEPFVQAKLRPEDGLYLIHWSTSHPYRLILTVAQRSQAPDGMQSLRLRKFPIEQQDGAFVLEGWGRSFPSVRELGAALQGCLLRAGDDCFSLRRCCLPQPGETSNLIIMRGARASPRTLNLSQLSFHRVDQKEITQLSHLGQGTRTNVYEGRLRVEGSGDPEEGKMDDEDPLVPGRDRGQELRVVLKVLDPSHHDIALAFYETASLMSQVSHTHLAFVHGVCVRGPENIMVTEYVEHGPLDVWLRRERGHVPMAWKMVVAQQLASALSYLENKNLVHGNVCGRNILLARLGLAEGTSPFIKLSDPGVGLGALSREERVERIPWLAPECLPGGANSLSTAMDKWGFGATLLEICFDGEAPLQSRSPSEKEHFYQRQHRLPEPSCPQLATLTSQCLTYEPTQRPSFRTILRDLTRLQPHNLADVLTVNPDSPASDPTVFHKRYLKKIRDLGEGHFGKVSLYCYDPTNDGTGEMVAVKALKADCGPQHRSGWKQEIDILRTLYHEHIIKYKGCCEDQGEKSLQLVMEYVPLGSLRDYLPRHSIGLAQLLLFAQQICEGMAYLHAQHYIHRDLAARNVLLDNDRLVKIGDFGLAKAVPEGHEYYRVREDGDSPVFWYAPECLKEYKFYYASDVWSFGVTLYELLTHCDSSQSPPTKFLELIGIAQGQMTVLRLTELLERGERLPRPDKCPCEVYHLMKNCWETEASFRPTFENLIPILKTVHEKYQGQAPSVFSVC
Experimental: as §1

| Structure (SMILES) | pKd (JAK3) | pKd (JAK2) | pIC50 [1] | S-Score: S(10) at 10 μM [2] | pKd (TYK2) |
| --- | --- | --- | --- | --- | --- |
| Cc1cc(Nc2nc(C(F)(F)c3ccc(F)cc3)nc3cc(-c4cnn(C)c4)ccc23)n[nH]1 [Example 1, 2-(difluoro(4-fluorophenyl)methyl)-N-(5-methyl-1H-pyrazol-3-yl)-7-(1-methyl-1H-pyrazol-4-yl)quinazolin-4-amine] | ≥ 8.00 | ≥ 9.00 | ≥ 7.00 | A (A≦0.3) | ≥ 8.00 |
| Cc1cc(Nc2nc(C(F)(F)c3ccc(F)cc3)nc3cc(-c4cncnc4)ccc23)n[nH]1 [Example 2, 2-(difluoro(4-fluorophenyl)methyl)-N-(5-methyl-1H-pyrazol-3-yl)-7-(pyrimidin-5-yl)quinazolin-4-amine] | ≥ 8.00 | ≥ 9.00 | ≥ 7.00 | A (A≦0.3) | ≥ 8.00 |
| Cc1cc(Nc2nc(C(F)(F)c3ccc(F)cc3)nc3cc(C4(O)COC4)ccc23)n[nH]1 [Example 3, 3-(2-(difluoro(4-fluorophenyl)methyl)-4-(5-methyl-1H-pyrazol-3-ylamino)quinazolin-7-yl)oxetan-3-ol] | ≥ 8.00 | ≥ 9.00 | ≥ 7.00 | D (D>0.5) | ≥ 8.00 |
| Cc1cc(Nc2nc(C(F)(F)c3ccc(F)cc3)nc3cc(C4=CCOCC4)ccc23)n[nH]1 [Example 4, 2-(difluoro(4-fluorophenyl)methyl)-7-(3,6-dihydro-2H-pyran-4-yl)-N-(5-methyl-1H-pyrazol-3-yl)quinazolin-4-amine] | ≥ 8.00 | 8.00 to 9.00 | 6.30 to 7.00 | A (A≦0.3) | ≥ 8.00 |
| Cc1cc(Nc2nc(C(F)(F)c3ccc(F)cc3)nc3cc(-c4ccccc4O)ccc23)n[nH]1 [Example 5, 2-(2-(difluoro(4-fluorophenyl)methyl)-4-(5-methyl-1H-pyrazol-3-ylamino)quinazolin-7-yl)phenol] | 7.00 to 8.00 | 8.00 to 9.00 | 6.30 to 7.00 | A (A≦0.3) | 7.00 to 8.00 |
| Cc1cc(Nc2nc(C(F)(F)c3ccc(F)cc3)nc3cc(-c4c(C)noc4C)ccc23)n[nH]1 [Example 6, 2-(difluoro(4-fluorophenyl)methyl)-7-(3,5-dimethylisoxazol-4-yl)-N-(5-methyl-1H-pyrazol-3-yl)quinazolin-4-amine] | ≥ 8.00 | 8.00 to 9.00 | 6.30 to 7.00 | B (0.3≦B≦0.4) | ≥ 8.00 |
| Cc1cc(Nc2nc(C(F)(F)c3ccc(F)cc3)nc3cc(N4C[C@H](O)CC4=O)ccc23)n[nH]1 [Example 7, (R)-1-(2-(difluoro(4-fluorophenyl)methyl)-4-(5-methyl-1H-pyrazol-3-ylamino)quinazolin-7-yl)-4-hydroxypyrrolidin-2-one] | ≥ 8.00 | ≥ 9.00 | 6.30 to 7.00 | D (D>0.5) | ≥ 8.00 |
| Cc1cc(Nc2nc(C(F)(F)c3ccc(F)cc3)nc3cc(CN4CCOCC4)ccc23)n[nH]1 [Example 8, 2-(difluoro(4-fluorophenyl)methyl)-N-(5-methyl-1H-pyrazol-3-yl)-7-(morpholinomethyl)quinazolin-4-amine] | ≥ 8.00 | ≥ 9.00 | ≥ 7.00 | D (D>0.5) | ≥ 8.00 |
